Measurements as given in the supplement of paper PMC10307832.

Compound: CC1(C)CCC(CN2CCN(c3ccc(C(=O)NS(=O)(=O)c4ccc(NCC5CCOCC5)c([N+](=O)[O-])c4)c(Oc4cnc5[nH]ccc5c4)c3)CC2)=C(c2ccc(Cl)cc2)C1 [Venetoclax] + CC1(C)CCC(c2ccc(Cl)cc2)=C(CN2CCN(c3ccc(C(=O)NS(=O)(=O)c4ccc(N[C@H](CCN5CCOCC5)CSc5ccccc5)c(S(=O)(=O)C(F)(F)F)c4)cc3)CC2)C1 [Navitoclax] (partner 0.5 µM)
Test: relative viability (nuclei count vs DMSO), 5 days (fraction); higher = more cells survive
Conditions: first compound 0.01 µM
Summary of the method: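 Lung cancer cell lines in 1536-well plates got either a single drug or a fixed anchor-drug dose together with five library-drug doses (not always all listed) in √10 steps, by pin tool, on the day after seeding. Nuclei were counted after 5 days, and relative viability is the treated-to-vehicle ratio of nuclei counts. Values are medians of duplicate plates.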

Point of comparison: HCC-366, relative viability 1.04. Against it:
- LC-2-ad — lower, 0.441
- LXF-289 — lower, 0.926
- ChaGo-K-1 — lower, 1.02
- NCI-H2170 — lower, 0.746
- NCI-H322M — higher, 1.25
- HCC-78 — lower, 0.97
- BEN — lower, 0.36
- HCC-15 — lower, 0.674
- HCC-827 — lower, 1.02
- NCI-H460 — lower, 0.996
- LU99A — lower, 0.783
- NCI-H2085 — lower, 0.952
- A-427 — lower, 0.874
- NCI-H520 — higher, 1.14
- NCI-H838 — higher, 1.21
- NCI-H596 — lower, 0.892
- NCI-H3122 — higher, 1.11
- NCI-H1395 — higher, 1.15
- 201T — higher, 1.17
- NCI-H1993 — lower, 0.971
- HOP-62 — lower, 0.988
- NCI-H1355 — lower, 0.892
- NCI-H2405 — lower, 0.865
- NCI-H1437 — higher, 1.07
- CAL-12T — higher, 1.4
- H3255 — lower, 0.54
- NCI-H2347 — lower, 0.793
- NCI-H1975 — higher, 1.15
- NCI-H441 — lower, 0.659
- NCI-H1650 — higher, 1.14
- NCI-H1915 — lower, 0.763
- NCI-H2087 — lower, 1.01
- NCI-H1793 — lower, 0.375
- RERF-LC-KJ — lower, 0.994
- EKVX — lower, 0.985

Same assay, conditions: first compound 0.03162 µM

Point of comparison: NCI-H520, relative viability 1.27. Against it:
- LC-2-ad — lower, 0.4
- LXF-289 — lower, 0.988
- ChaGo-K-1 — lower, 1.24
- NCI-H2170 — lower, 0.688
- NCI-H322M — lower, 1.11
- HCC-78 — lower, 0.895
- BEN — lower, 0.0558
- HCC-15 — lower, 0.707
- HCC-827 — lower, 0.996
- NCI-H460 — lower, 1.16
- LU99A — lower, 0.936
- NCI-H2085 — lower, 1.16
- A-427 — lower, 1.1
- NCI-H838 — lower, 1.14
- NCI-H596 — lower, 0.935
- NCI-H3122 — lower, 1.03
- NCI-H1395 — lower, 1.12
- 201T — lower, 1.24
- NCI-H1993 — lower, 0.904
- HOP-62 — lower, 1.17
- NCI-H1355 — lower, 0.972
- NCI-H2405 — lower, 1.02
- NCI-H1437 — lower, 1.09
- CAL-12T — lower, 1.22
- H3255 — lower, 0.573
- NCI-H2347 — lower, 0.876
- NCI-H1975 — lower, 1.15
- NCI-H441 — lower, 1.09
- NCI-H1650 — higher, 1.3
- NCI-H1915 — lower, 0.79
- NCI-H2087 — lower, 0.982
- HCC-366 — lower, 1
- NCI-H1793 — lower, 0.454
- RERF-LC-KJ — lower, 0.961
- EKVX — lower, 0.995

Same assay, conditions: first compound 0.1 µM

Point of comparison: NCI-H1395, relative viability 1.16. Against it:
- LC-2-ad — lower, 0.531
- LXF-289 — lower, 0.952
- NCI-H2170 — lower, 0.521
- NCI-H322M — lower, 1.11
- HCC-78 — lower, 0.688
- BEN — lower, 0.072
- HCC-15 — lower, 0.635
- HCC-827 — lower, 1.04
- NCI-H460 — lower, 1.1
- LU99A — lower, 0.708
- NCI-H2085 — higher, 1.17
- A-427 — lower, 0.967
- NCI-H520 — lower, 1.06
- NCI-H838 — lower, 1.1
- NCI-H596 — lower, 0.916
- NCI-H3122 — lower, 1.03
- 201T — higher, 1.27
- NCI-H1993 — lower, 0.944
- HOP-62 — lower, 1.09
- NCI-H1355 — lower, 0.804
- NCI-H1437 — lower, 1.04
- CAL-12T — lower, 0.956
- H3255 — lower, 0.433
- NCI-H2347 — lower, 0.807
- NCI-H1975 — lower, 1.05
- NCI-H441 — lower, 0.627
- NCI-H1915 — lower, 0.733
- NCI-H2087 — lower, 0.921
- HCC-366 — lower, 1.01
- NCI-H1793 — lower, 0.287
- RERF-LC-KJ — lower, 0.794
- EKVX — lower, 0.917

Same assay, conditions: first compound 0.3162 µM

Point of comparison: NCI-H2087, relative viability 0.942. Against it:
- LC-2-ad — lower, 0.52
- LXF-289 — lower, 0.868
- ChaGo-K-1 — higher, 1.09
- NCI-H2170 — lower, 0.509
- NCI-H322M — higher, 1.35
- HCC-78 — lower, 0.755
- BEN — lower, 0.0753
- HCC-15 — lower, 0.621
- HCC-827 — higher, 1.04
- NCI-H460 — higher, 1.07
- LU99A — lower, 0.833
- NCI-H2085 — higher, 1.26
- A-427 — higher, 0.988
- NCI-H520 — higher, 1.2
- NCI-H838 — higher, 1.11
- NCI-H596 — lower, 0.887
- NCI-H3122 — higher, 1.01
- NCI-H1395 — higher, 1.13
- 201T — higher, 1.19
- NCI-H1993 — higher, 0.962
- HOP-62 — higher, 1.13
- NCI-H1355 — lower, 0.915
- NCI-H2405 — lower, 0.941
- NCI-H1437 — higher, 1.04
- CAL-12T — higher, 1.15
- H3255 — lower, 0.618
- NCI-H2347 — lower, 0.855
- NCI-H1975 — higher, 1.21
- NCI-H441 — lower, 0.482
- NCI-H1650 — higher, 1.02
- NCI-H1915 — lower, 0.788
- HCC-366 — higher, 0.987
- NCI-H1793 — lower, 0.461
- RERF-LC-KJ — higher, 1.08
- EKVX — lower, 0.891

Same assay, conditions: first compound 1 µM

Point of comparison: BEN, relative viability 0.0581. Against it:
- LC-2-ad — higher, 0.466
- LXF-289 — higher, 0.829
- ChaGo-K-1 — higher, 1.06
- NCI-H2170 — higher, 0.531
- NCI-H322M — higher, 1.16
- HCC-78 — higher, 0.84
- HCC-15 — higher, 0.588
- HCC-827 — higher, 1.01
- NCI-H460 — higher, 1.09
- LU99A — higher, 0.741
